Laboratory results taken from PMC11314561, “Design and Synthesis of Novel Aminoindazole-pyrrolo[2,3-b]pyridine Inhibitors of IKKα That Selectively Perturb Cellular Non-Canonical NF-κB Signalling” (Molecules, 2024).

Experiments:
Assay in all cases: kinase panel
Type in all cases: biochemical
IR(h), activated = IR(h), activated (Homo sapiens, UniProt P06213)
Outline: (§1)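 Percentage inhibition was recorded for each compound against a broad kinase panel of 231 enzymes. Because of its close structural resemblance to another analogue, one compound was screened against 98 chosen kinases.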

CLK3(h) = CLK3(h) (Homo sapiens, UniProt P49761)
Outline: as §1

BrSK2(h) = BrSK2(h) (Homo sapiens, UniProt Q8IWQ3)
Outline: as §1

DCAMKL2(h) = DCAMKL2(h) (Homo sapiens, UniProt Q8N568)
Outline: as §1

MAPK2(h) = MAPK2(h) (Homo sapiens, UniProt P28482)
Outline: as §1

EphA2(h) = EphA2(h) (Homo sapiens, UniProt P29317)
Outline: as §1

Txk(h) = Txk(h) (Homo sapiens, UniProt P42681)
Outline: as §1

DDR2(h) = DDR2(h) (Homo sapiens, UniProt Q16832)
Outline: as §1

Rse(h) = Rse(h) (Homo sapiens, UniProt Q06418)
Outline: as §1

PKA(h) = PKA(h) (Homo sapiens, UniProt P17612)
Outline: as §1

PKCβII(h) = PKCβII(h) (Homo sapiens, UniProt P05771)
Outline: as §1

SGK2(h) = SGK2(h) (Homo sapiens, UniProt Q9HBY8)
Outline: as §1

BTK(h) = BTK(h) (Homo sapiens, UniProt Q06187)
Outline: as §1

MKK6(h) = MKK6(h) (Homo sapiens, UniProt P52564)
Outline: as §1

MST3(h) = MST3(h) (Homo sapiens, UniProt Q9Y6E0)
Outline: as §1

CSK(h) = CSK(h) (Homo sapiens, UniProt P41240)
Outline: as §1

Mnk2(h) = Mnk2(h) (Homo sapiens, UniProt Q9HBH9)
Outline: as §1

NEK11(h) = NEK11(h) (Homo sapiens, UniProt Q8NG66)
Outline: as §1

p70S6K(h) = p70S6K(h) (Homo sapiens, UniProt P23443)
Outline: as §1

Rsk2(h) = Rsk2(h) (Homo sapiens, UniProt P51812)
Outline: as §1

NEK3(h) = NEK3(h) (Homo sapiens, UniProt P51956)
Outline: as §1

EphA7(h) = EphA7(h) (Homo sapiens, UniProt Q15375)
Outline: as §1

Tec(h) activated = Tec(h) activated (Homo sapiens, UniProt P42680)
Outline: as §1

PrKX(h) = PrKX(h) (Homo sapiens, UniProt P51817)
Outline: as §1

CK2α2(h) = CK2α2(h) (Homo sapiens, UniProt P19784)
Outline: as §1

WNK2(h) = WNK2(h) (Homo sapiens, UniProt Q9Y3S1)
Outline: as §1

ULK3(h) = ULK3(h) (Homo sapiens, UniProt Q6PHR2)
Outline: as §1

Blk(h) = Blk(h) (Homo sapiens, UniProt P51451)
Outline: as §1

FAK(h) = FAK(h) (Homo sapiens, UniProt Q05397)
Outline: as §1

CK1γ3(h) = CK1γ3(h) (Homo sapiens, UniProt Q9Y6M4)
Outline: as §1

PEK(h) = PEK(h) (Homo sapiens, UniProt Q9NZJ5)
Outline: as §1

PKCθ(h) = PKCθ(h) (Homo sapiens, UniProt Q04759)
Outline: as §1

TSSK1(h) = TSSK1(h) (Homo sapiens, UniProt Q9BXA7)
Outline: as §1

TLK2(h) = TLK2(h) (Homo sapiens, UniProt Q86UE8)
Outline: as §1

EphB4(h) = EphB4(h) (Homo sapiens, UniProt P54760)
Outline: as §1

PKBγ(h) = PKBγ(h) (Homo sapiens, UniProt Q9Y243)
Outline: as §1

GRK7(h) = GRK7(h) (Homo sapiens, UniProt Q8WTQ7)
Outline: as §1

PKCγ(h) = PKCγ(h) (Homo sapiens, UniProt P05129)
Outline: as §1

Ros(h) = Ros(h) (Homo sapiens, UniProt P08922)
Outline: as §1

Fer(h) = Fer(h) (Homo sapiens, UniProt P16591)
Outline: as §1

Fgr(h) = Fgr(h) (Homo sapiens, UniProt P09769)
Outline: as §1

mTOR/FKBP12(h) = mTOR/FKBP12(h) (Homo sapiens, UniProt P42345)
Outline: as §1

PKCβII(h), sequence (P05771 1-673 isoform P05771-2): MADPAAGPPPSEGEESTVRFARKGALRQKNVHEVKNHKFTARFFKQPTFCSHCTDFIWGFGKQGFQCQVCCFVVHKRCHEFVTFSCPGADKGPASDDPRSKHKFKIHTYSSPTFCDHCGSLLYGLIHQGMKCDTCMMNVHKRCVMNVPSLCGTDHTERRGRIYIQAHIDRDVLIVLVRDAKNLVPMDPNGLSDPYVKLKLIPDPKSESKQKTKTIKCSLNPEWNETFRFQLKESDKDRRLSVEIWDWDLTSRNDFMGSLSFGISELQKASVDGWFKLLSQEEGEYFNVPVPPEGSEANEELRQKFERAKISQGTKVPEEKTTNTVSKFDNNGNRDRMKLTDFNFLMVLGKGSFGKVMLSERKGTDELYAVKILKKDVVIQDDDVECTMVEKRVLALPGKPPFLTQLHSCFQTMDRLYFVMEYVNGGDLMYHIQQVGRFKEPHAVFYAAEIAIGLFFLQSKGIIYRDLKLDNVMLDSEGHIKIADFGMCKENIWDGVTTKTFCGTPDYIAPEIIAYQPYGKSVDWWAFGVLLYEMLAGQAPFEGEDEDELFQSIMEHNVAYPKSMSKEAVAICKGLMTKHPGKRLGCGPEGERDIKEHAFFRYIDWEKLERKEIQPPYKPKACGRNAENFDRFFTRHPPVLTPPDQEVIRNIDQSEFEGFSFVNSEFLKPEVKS
WNK2(h), sequence (Q9Y3S1 whole entry): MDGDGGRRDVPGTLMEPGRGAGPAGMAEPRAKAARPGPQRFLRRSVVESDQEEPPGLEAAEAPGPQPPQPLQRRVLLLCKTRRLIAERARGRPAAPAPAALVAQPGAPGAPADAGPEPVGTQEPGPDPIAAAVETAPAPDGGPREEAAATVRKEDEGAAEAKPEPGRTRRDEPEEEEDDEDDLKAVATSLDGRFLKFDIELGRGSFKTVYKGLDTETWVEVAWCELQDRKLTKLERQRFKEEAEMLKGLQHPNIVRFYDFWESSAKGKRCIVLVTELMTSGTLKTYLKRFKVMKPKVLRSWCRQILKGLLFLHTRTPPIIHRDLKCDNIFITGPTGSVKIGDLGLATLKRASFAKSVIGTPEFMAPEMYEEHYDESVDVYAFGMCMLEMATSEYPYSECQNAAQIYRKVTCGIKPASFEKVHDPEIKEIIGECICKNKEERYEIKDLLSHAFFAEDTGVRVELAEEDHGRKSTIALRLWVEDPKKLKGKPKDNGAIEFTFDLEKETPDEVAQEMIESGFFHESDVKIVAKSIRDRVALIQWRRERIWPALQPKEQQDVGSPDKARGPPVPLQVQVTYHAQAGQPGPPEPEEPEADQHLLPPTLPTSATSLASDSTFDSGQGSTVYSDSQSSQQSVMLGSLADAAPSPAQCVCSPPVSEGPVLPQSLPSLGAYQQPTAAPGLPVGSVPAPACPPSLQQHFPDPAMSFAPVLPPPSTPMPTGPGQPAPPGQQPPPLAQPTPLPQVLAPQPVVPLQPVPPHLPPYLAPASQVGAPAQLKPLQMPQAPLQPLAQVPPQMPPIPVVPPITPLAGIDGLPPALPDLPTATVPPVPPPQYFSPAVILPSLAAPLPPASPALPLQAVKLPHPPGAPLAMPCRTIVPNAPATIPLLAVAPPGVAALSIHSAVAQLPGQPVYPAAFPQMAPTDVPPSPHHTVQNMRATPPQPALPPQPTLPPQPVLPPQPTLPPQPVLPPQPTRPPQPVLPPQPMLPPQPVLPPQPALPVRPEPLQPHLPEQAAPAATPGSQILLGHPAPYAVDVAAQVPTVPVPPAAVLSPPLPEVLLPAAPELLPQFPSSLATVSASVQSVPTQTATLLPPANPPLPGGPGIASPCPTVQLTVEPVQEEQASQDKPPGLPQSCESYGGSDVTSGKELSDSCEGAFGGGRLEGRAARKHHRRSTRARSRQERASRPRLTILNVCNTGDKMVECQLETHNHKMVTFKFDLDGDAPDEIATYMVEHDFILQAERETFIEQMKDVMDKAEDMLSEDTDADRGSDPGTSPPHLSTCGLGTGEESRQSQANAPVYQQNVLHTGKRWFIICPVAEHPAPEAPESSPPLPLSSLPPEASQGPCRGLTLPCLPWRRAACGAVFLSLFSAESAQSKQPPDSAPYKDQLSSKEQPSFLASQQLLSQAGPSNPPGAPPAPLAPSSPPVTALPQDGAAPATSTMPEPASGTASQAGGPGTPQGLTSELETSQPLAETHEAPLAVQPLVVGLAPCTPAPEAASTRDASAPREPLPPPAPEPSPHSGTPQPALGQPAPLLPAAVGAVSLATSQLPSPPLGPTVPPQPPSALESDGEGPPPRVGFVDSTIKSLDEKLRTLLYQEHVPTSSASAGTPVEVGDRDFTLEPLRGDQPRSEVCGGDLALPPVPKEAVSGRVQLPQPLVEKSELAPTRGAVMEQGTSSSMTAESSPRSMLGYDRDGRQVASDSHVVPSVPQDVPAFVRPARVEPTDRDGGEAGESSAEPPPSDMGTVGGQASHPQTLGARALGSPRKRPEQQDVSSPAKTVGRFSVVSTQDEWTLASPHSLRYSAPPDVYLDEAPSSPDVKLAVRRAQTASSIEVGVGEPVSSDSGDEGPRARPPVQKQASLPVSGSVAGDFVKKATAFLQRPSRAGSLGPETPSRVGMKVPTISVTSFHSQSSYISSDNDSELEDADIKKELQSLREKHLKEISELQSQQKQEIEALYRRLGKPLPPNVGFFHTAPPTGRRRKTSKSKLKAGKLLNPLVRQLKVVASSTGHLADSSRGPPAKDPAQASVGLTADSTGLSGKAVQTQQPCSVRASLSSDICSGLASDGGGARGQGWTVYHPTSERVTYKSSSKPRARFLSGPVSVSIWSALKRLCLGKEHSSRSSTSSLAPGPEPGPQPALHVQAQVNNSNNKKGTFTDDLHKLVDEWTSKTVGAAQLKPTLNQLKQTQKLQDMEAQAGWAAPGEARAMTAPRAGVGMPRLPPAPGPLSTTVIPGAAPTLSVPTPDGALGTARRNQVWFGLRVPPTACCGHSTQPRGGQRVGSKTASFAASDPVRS
TLK2(h), sequence (Q86UE8 whole entry): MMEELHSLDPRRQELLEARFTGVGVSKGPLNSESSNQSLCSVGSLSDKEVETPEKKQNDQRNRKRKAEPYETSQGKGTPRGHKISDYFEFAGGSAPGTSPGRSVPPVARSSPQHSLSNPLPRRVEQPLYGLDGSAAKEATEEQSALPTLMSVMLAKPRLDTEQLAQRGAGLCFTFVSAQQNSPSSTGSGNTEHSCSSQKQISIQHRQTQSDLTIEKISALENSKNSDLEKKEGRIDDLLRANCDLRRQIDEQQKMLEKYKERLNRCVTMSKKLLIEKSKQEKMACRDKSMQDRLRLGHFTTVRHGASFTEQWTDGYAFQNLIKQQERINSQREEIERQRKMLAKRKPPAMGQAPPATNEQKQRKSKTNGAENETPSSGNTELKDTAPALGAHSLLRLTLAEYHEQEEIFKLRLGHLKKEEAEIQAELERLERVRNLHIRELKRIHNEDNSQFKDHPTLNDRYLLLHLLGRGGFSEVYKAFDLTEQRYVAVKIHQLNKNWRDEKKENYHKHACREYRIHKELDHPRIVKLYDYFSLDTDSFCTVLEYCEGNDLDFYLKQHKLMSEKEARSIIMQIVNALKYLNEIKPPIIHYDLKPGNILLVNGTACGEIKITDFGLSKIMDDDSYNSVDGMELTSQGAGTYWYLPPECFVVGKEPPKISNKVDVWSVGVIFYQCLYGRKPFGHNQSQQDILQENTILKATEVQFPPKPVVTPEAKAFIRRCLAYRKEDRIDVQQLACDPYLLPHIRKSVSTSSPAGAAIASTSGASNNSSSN
PKBγ(h), sequence (Q9Y243 whole entry): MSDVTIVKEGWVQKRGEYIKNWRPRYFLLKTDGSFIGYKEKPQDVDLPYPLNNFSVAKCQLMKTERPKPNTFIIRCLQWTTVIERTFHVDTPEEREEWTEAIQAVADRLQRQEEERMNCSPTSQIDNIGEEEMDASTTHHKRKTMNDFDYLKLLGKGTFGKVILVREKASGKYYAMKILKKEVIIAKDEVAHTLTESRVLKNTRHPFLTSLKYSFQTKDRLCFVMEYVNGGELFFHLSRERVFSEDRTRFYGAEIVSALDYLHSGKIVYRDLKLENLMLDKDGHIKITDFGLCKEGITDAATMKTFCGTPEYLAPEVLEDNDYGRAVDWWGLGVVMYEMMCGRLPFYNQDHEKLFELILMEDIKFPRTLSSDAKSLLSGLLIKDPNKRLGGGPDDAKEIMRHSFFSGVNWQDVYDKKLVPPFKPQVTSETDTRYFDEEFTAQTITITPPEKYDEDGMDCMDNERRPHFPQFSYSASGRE
Fer(h), sequence (P16591 whole entry): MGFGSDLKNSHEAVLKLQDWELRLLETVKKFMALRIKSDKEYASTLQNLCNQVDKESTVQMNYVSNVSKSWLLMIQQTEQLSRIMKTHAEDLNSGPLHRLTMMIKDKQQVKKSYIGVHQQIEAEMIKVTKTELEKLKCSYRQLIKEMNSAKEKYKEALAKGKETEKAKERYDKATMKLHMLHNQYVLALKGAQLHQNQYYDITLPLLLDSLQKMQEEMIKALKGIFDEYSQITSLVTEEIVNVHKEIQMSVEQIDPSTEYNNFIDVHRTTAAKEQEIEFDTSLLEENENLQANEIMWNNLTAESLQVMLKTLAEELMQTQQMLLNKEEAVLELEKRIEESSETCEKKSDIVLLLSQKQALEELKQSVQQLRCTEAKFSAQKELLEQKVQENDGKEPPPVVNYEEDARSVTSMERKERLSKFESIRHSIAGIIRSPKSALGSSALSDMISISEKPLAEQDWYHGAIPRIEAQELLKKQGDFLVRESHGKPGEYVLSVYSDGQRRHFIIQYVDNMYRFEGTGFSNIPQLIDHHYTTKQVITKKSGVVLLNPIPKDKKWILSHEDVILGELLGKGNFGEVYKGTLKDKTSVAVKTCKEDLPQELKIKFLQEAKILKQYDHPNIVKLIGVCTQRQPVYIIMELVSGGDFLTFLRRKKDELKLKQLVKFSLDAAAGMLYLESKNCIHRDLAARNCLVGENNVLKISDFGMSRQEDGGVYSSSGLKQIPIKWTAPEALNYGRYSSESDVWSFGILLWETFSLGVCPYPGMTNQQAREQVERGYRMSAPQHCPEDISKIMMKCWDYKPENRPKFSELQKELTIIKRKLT

Molecule `Nc1n[nH]c2ccc(-c3ccnc4[nH]c(-c5ccccc5)cc34)cc12` [Compound 4] has an inhibition at 1 µM (IR(h), activated) of 46%, an inhibition at 1 µM (CLK3(h)) of 74% and an inhibition at 1 µM (BrSK2(h)) of 41%. It also gave an inhibition at 1 µM (DCAMKL2(h)) of 33%, an inhibition at 1 µM (MAPK2(h)) of 29% and an inhibition at 1 µM (EphA2(h)) of 14%. It also gave an inhibition at 1 µM (Txk(h)) of 43%, an inhibition at 1 µM (DDR2(h)) of 16% and an inhibition at 1 µM (Rse(h)) of 30%. For the same molecule, the inhibition at 1 µM (PKA(h)) was 29%, the inhibition at 1 µM (PKCβII(h)) was 9% and the inhibition at 1 µM (SGK2(h)) was 44%. It also gave an inhibition at 1 µM (BTK(h)) of 11%, an inhibition at 1 µM (MKK6(h)) of 17% and an inhibition at 1 µM (MST3(h)) of 6%. It also gave an inhibition at 1 µM (CSK(h)) of -16%, an inhibition at 1 µM (Mnk2(h)) of 67% and an inhibition at 1 µM (NEK11(h)) of 4%. It also gave an inhibition at 1 µM (p70S6K(h)) of 33%, an inhibition at 1 µM (Rsk2(h)) of 28% and an inhibition at 1 µM (NEK3(h)) of 0%. The inhibition at 1 µM (EphA7(h)) was 26%, the inhibition at 1 µM (Tec(h) activated) was 29% and the inhibition at 1 µM (PrKX(h)) was -21%. The inhibition at 1 µM (CK2α2(h)) was 5%, the inhibition at 1 µM (WNK2(h)) was 29% and the inhibition at 1 µM (ULK3(h)) was 48%. For the same molecule, the inhibition at 1 µM (Blk(h)) was 37%, the inhibition at 1 µM (FAK(h)) was 35% and the inhibition at 1 µM (CK1γ3(h)) was 29%. The inhibition at 1 µM (PEK(h)) was 10%, the inhibition at 1 µM (PKCθ(h)) was 6% and the inhibition at 1 µM (TSSK1(h)) was 34%. It also gave an inhibition at 1 µM (TLK2(h)) of -8%, an inhibition at 1 µM (EphB4(h)) of 53% and an inhibition at 1 µM (PKBγ(h)) of 12%. The inhibition at 1 µM (GRK7(h)) was 10%, the inhibition at 1 µM (PKCγ(h)) was -5% and the inhibition at 1 µM (Ros(h)) was 16%. The inhibition at 1 µM (Fer(h)) was 7%, the inhibition at 1 µM (Fgr(h)) was 54% and the inhibition at 1 µM (mTOR/FKBP12(h)) was 3%.

With `Nc1n[nH]c2ccc(-c3ccnc4[nH]c(-c5cccc(OCc6ccccc6)c5)cc34)cc12` [Compound 5r [SU1261]] the inhibition at 1 µM (IR(h), activated) was 23%, the inhibition at 1 µM (CLK3(h)) was 23% and the inhibition at 1 µM (BrSK2(h)) was 9%. For the same molecule, the inhibition at 1 µM (DCAMKL2(h)) was 6%, the inhibition at 1 µM (MAPK2(h)) was -1% and the inhibition at 1 µM (EphA2(h)) was -9%. For the same molecule, the inhibition at 1 µM (Txk(h)) was 27%, the inhibition at 1 µM (DDR2(h)) was -17% and the inhibition at 1 µM (Rse(h)) was 10%. It also gave an inhibition at 1 µM (PKA(h)) of -6%, an inhibition at 1 µM (PKCβII(h)) of -1% and an inhibition at 1 µM (SGK2(h)) of 30%. For the same molecule, the inhibition at 1 µM (BTK(h)) was 3%, the inhibition at 1 µM (MKK6(h)) was 2% and the inhibition at 1 µM (MST3(h)) was -3%. The inhibition at 1 µM (CSK(h)) was -4%, the inhibition at 1 µM (Mnk2(h)) was 26% and the inhibition at 1 µM (NEK11(h)) was -6%. The inhibition at 1 µM (p70S6K(h)) was -15%, the inhibition at 1 µM (Rsk2(h)) was 0% and the inhibition at 1 µM (NEK3(h)) was -14%. For the same molecule, the inhibition at 1 µM (EphA7(h)) was -3%, the inhibition at 1 µM (Tec(h) activated) was 62% and the inhibition at 1 µM (PrKX(h)) was -22%. For the same molecule, the inhibition at 1 µM (CK2α2(h)) was 4%, the inhibition at 1 µM (WNK2(h)) was 22% and the inhibition at 1 µM (ULK3(h)) was 14%. The inhibition at 1 µM (Blk(h)) was -4%, the inhibition at 1 µM (FAK(h)) was 8% and the inhibition at 1 µM (CK1γ3(h)) was 19%. For the same molecule, the inhibition at 1 µM (PEK(h)) was 8%, the inhibition at 1 µM (PKCθ(h)) was -14% and the inhibition at 1 µM (TSSK1(h)) was 14%. It also gave an inhibition at 1 µM (TLK2(h)) of 0%, an inhibition at 1 µM (EphB4(h)) of 25% and an inhibition at 1 µM (PKBγ(h)) of 0%. The inhibition at 1 µM (GRK7(h)) was -3%, the inhibition at 1 µM (PKCγ(h)) was -2% and the inhibition at 1 µM (Ros(h)) was 11%. For the same molecule, the inhibition at 1 µM (Fer(h)) was -16%, the inhibition at 1 µM (Fgr(h)) was 33% and the inhibition at 1 µM (mTOR/FKBP12(h)) was 2%.
